Where two headings read alike, the source gives them in different places.
Assays:
cGMP-PDE = molecular target: T1, cGMP-PDE (Homo sapiens, UniProt O76074); assay: Activity for inhibiting cGMP PDE (PDE partially purified from human platelets, FI fraction); format: biochemical; settings: 0.4 μM of [3H]-cGMP
T1 construct: Separation and partial purification of PDE (phosphodiesterase) from human platelets; from tissue; host or cells: human platelets (supernatant, DEAE-cellulose FI fraction)
Procedure: (1) Measurement of the Activity for Inhibiting cGMP PDE
Separation and partial purification of PDE (phosphodiesterase) from human platelets, and measurement of the activity for inhibiting cGMP PDE were conducted by the method of Hidaka, et al. [Biochimica et Biophysica Acta, Vol. 429, (1976), pp. 485-497]. The platelets obtained from human healthy adult were washed, and suspended in TRIS-buffer solution, then said suspension was treated by centrifugal separation, the supernatant was subjected to a DEAE-cellulose treatment and fractionated into FI to FIII fractions by a method of concentration gradient of sodium acetate. Thus obtained FI fraction was used as the sample of cGMP-PDE. The activity for inhibiting cGMP-PDE was measured by using 0.4 μM of [^3 H]-cGMP.

rat A10 cells = assay: Activity for inhibiting proliferation of rat A10 cells ([3H]-thymidine uptake); format: cell-based; settings: read-out: Activity for inhibiting proliferation of rat A10 cells [IC50 (μM)]
Procedure: (2) Measurement of the Activity for Inhibiting Proliferation of Rat A10 Cells
(§1) Test was conducted by the modified method of N. Morisaki [Atherosclerosis, Vol. 71, (1988), pp. 165-171]. The rat A10 cells (purchased from Dainippon Pharmaceutical Co., Ltd.) were inoculated on a 24 wells immunoplate at a density of 10,000 cells/well, and were cultured in 10% FBS (fetal bovine serum) for 2 days, and in order to introduce the cells into the resting stage, the cells were further cultured in a serum-free medium for 2 days. After that, 1% FBS was added thereto for stimulating the proliferation, of the cells and at the same time, a test compound and 0.5 μCi/well of [^3 H]-thymidine were added. As to the index of synthesized amount of DNA, the quantity of [^3 H]-thymidine being uptaken by the cells was measured at the time of 24 hours after the final cultivation was started.

human fibroblast = assay: Activity for inhibiting proliferation of the human fibroblast ([3H]-thymidine uptake); format: cell-based
Procedure: as §1
(3) Measurement of the Activity for Inhibiting Proliferation of the Human Fibroblast
Similar to the activity for inhibiting proliferation of rat A10 cells as mentioned above, the activity for inhibiting proliferation of the human fibroblast (purchased from Dainippon Pharmaceutical Co., Ltd.) was determined by measuring the uptake amount of [^3 H]-thymidine.

[1] = A10, 1% FBS stimulation, 24 hours

Structure (SMILES)	IC50 (cGMP-PDE)	IC50 (rat A10 cells; A10, 24 h)	IC50 (human fibroblast)	IC50 (rat A10 cells; [1])
O=C(Nc1ccc2[nH]c(=O)ccc2c1)c1nc2ccc(Cl)cc2n1Cc1ccccc1 [Example 46, 1-benzyl-6-chloro-2-[2(1H)-quinolinon-6-ylamino-caronyl]benzimidazole]	< 0.01 µM	–	–	–
N#Cc1cccc(OCCCn2ccc3cc(NC(=O)c4nc5ccc(Cl)cc5n4Cc4ccccc4)ccc32)c1 [Example 25]	0.12 µM	–	–	–
O=C(Nc1ccc2[nH]ccc2c1)c1nc2ccc(Cl)cc2n1Cc1ccccc1 [Example 2]	0.02 µM	0.4 µM	–	–
CC(C)n1nnnc1Cn1ccc2cc(NC(=O)c3nc4ccc(Cl)cc4n3Cc3ccccc3)ccc21 [Example 16]	–	–	49 nM	–
CN(CCCn1ccc2cc(NC(=O)c3nc4ccc(Cl)cc4n3Cc3ccccc3)ccc21)C1CCCCC1 [Example 4]	0.06 µM	–	–	0.3 µM
O=C(Nc1ccc2c(ccn2CCCn2cccn2)c1)c1nc2ccc(Cl)cc2n1Cc1ccccc1 [Example 6]	–	–	–	0.66 µM
CC(C)c1nccn1CCCn1ccc2cc(CNC(=O)c3nc4ccc(Cl)cc4n3Cc3ccccc3)ccc21 [Example 18]	–	–	–	0.48 µM
O=C(NCCCn1ccc2cc(NC(=O)c3nc4ccc(Cl)cc4n3Cc3ccccc3)ccc21)c1cccnc1 [Example 11, 1-benzyl-6-chloro-2-{1-[3-(pyridin-3-ylcarbonylamino)propyl]indol-5-ylaminocarbonyl}benzimidazole]	0.01 µM	–	–	0.97 µM
Cc1noc(C)c1C(=O)NCCCn1ccc2cc(NC(=O)c3nc4ccc(Cl)cc4n3Cc3ccccc3)ccc21 [Example 12]	–	–	–	0.69 µM
O=C(Nc1ccc2c(c1)CCN2CCCN1CCC(O)(c2ccccc2)CC1)c1nc2ccc(Cl)cc2n1Cc1ccccc1 [Example 20]	0.01 µM	0.85 µM	–	–
COC(=O)n1ccc2cc(NC(=O)c3nc4ccc(Cl)cc4n3Cc3ccccc3)ccc21 [Example 9]	0.08 µM	–	–	–
O=C(Nc1ccc2c(ccn2CCCn2cncn2)c1)c1nc2ccc(Cl)cc2n1Cc1ccccc1 [Example 7]	–	–	–	0.49 µM
O=C(Nc1ccc2[nH]ncc2c1)c1nc2ccc(Cl)cc2n1Cc1ccccc1 [Example 21]	0.02 µM	–	–	–
CC(C)n1nnnc1CN1C(=O)CCc2cc(NC(=O)c3nc4ccc(Cl)cc4n3Cc3ccccc3)ccc21 [Example 45]	–	–	41 nM	–

Now from value to compound, other results behind:

IC50 (cGMP-PDE)	Structure (SMILES)	IC50 (rat A10 cells; A10, 24 h)	IC50 (human fibroblast)	IC50 (rat A10 cells; [1])
0.014 µM	CN(C)CCN(C)CCCN1C(=O)CCc2cc(NC(=O)c3nc4ccc(Cl)cc4n3Cc3ccccc3)ccc21 [Example 44]	–	–	–
< 0.01 µM	O=C(NCCCN1CCOc2cc(NC(=O)c3nc4ccc(Cl)cc4n3Cc3ccccc3)ccc21)c1ccccn1 [Example 47]	–	21 nM	0.67 µM
0.1 µM	C=CCN1C(=O)CCc2cc(NC(=O)c3nc4ccc(Cl)cc4n3Cc3ccccc3)ccc21 [Example 42]	–	–	0.95 µM
< 0.01 µM	O=C(NCCCN1CCc2cc(NC(=O)c3nc4ccc(Cl)cc4n3Cc3ccccc3)ccc21)c1ccc[nH]1 [Example 28]	–	–	–
< 0.01 µM	Cc1noc(C)c1C(=O)NCCCN1CCc2cc(NC(=O)c3nc4ccc(Cl)cc4n3Cc3ccccc3)ccc21 [Example 33]	–	42 nM	1.27 µM
0.02 µM	O=C1CCc2cc(NC(=O)c3nc4ccc(Cl)cc4n3Cc3ccccc3)ccc2N1 [Example 41, 1-benzyl-6-chloro-2-(3,4-dihydro-2(1H)-quinolinon-6-ylaminocarbonyl)benzimidazole]	–	–	–

From patent US5998437A, “Benzimidazole derivatives” (Otsuka Pharmaceutical Co., Ltd., priority 1995, dated 1999)
